The values below come from patent US11578084B2, “Condensed ring compounds having dopamine D3 receptor antagonistic effect” (Shionogi & Co., Ltd., priority 2018, dated 2023).

Experiment [1] deals with human recombinant dopamine D3 receptor (Homo sapiens (Human), UniProt P35462). Nature of the experiment: Test of binding inhibition for dopamine D3 receptor ([3H]-Methylspiperone SPA). The settings on record: Jump-In HEK cell membranes, 2 nM [3H]-Methylspiperone, 120 min at 25° C.; read-out: hD3_Ki. Here is the method: (§1) (Experimental Conditions)
Cell membranes: Jump-In HEK cell membranes expressing human recombinant dopamine D3 receptor (4 μg/well)
(§2) Non-specific ligand: (final concentration) 10 μM Butaclamol [(+)-Butaclamol Hydrochloride, D033, Sigma]
(§3) SPA beads solution: SPA beads [WGA PVT SPA Scintillation Beads, RPNQ0001 (500 mg), RPNQ0060 (2 g), PerkinElmer] (0.2 mg/well)
(§4) Incubation time and temperature: 120 min at 25° C.
(§5) Butaclamol or the compounds of the present invention were weighed and DMSO was added to make a 10 mM solution. This solution was diluted to each concentration.
[^3H]-Methylspiperone was weighed and the buffer solution was added to make a 6 nM solution.
(§6) SPA beads were weighed and stirred in water to make a 50 mg/mL solution. Using this solution, a mixture with the cell membranes was prepared.
(§7) Jump-In HEK Cell membranes (final reaction amount: 4 μg protein/well), the SPA beads solution (final reaction amount: 0.2 mg/well) and the buffer solution were mixed and the mixed solution was left still for 1 hour or more at 4° C. Then, 50 μL of the mixture was added to each well of the plate. In addition, 25 μL of 6 nM [^3H]-Methylspiperone (final concentration: 2 nM) was added to each well. […] Non-specific binding was calculated based on the radioactivity of [^3H]-Methylspiperone in the presence of 10 μM non-labeled Butaclamol. The total binding was calculated using the radioactivity of [H]-Methylspiperone in the absence of the compounds of the present invention (vehicle). The Ki values were calculated from dose-response curves.
(§8) Binding activities of the compounds of the present invention were calculated from the following Binding Inhibition Rate (%): Inhibition Rate (%)=[1−(c−a)/(b−a)]×100 • a: Average cpm of non-specific binding • b: Average cpm of total binding • c: Cpm in the presence of each test compound

Experiment [2] has as its target human recombinant dopamine D2 receptor (Homo sapiens (Human), UniProt P14416). As to the kind of experiment: Test of binding inhibition for dopamine D2 receptor ([3H]-Methylspiperone SPA). The settings on record: Jump-In HEK cell membranes, read-out: hD2_Ki. As to the method: as §1
Cell membranes: Jump-In HEK cell membranes expressing human recombinant dopamine D2 receptor (2 μg/well)
as §2, §3, §4, §5, §6
as §7, with “amount: 2” for “amount: 4”, “were mixed,” for “were mixed”, “plate.” for “plate. In addition, 25 μL of 6 nM [^3H]-Methylspiperone (final concentration: 2 nM) was added to each well.”, “of [^3H]-Methylspiperone” for “of [H]-Methylspiperone”, “invention (Vehicle).” for “invention (vehicle).”
as §8

Where [3] appears, read: 1.2 nM [3H]-Methylspiperone, 120 min at 25° C.

Read-outs that look alike come from different tables or passages of the source.

Chain of human recombinant dopamine D3 receptor (P35462 whole entry): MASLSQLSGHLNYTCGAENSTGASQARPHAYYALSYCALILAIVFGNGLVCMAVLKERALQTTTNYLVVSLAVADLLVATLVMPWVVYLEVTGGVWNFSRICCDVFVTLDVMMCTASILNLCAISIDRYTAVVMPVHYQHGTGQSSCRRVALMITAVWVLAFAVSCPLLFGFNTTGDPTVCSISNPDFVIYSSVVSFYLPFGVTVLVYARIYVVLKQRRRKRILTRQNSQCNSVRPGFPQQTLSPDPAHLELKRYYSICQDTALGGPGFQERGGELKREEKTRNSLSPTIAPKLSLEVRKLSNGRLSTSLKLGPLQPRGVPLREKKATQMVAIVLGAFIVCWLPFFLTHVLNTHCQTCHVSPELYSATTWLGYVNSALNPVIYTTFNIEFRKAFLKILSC
Chain of human recombinant dopamine D2 receptor (P14416 whole entry): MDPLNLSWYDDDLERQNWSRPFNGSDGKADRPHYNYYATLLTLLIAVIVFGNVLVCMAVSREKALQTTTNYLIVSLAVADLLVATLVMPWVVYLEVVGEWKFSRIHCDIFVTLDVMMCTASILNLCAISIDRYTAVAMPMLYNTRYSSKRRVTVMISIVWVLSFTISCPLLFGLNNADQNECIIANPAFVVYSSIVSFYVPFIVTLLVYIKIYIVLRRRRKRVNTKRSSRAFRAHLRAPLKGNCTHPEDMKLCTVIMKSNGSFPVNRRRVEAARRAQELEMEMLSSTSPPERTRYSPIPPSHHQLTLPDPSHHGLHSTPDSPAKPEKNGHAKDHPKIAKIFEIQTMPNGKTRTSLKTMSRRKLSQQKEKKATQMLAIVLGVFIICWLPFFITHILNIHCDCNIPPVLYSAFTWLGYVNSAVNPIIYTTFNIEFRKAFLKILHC

`O=C(N[C@H]1CC[C@](F)(CCN2CCc3nc(OCC(F)F)sc3CC2)CC1)c1cccnc1C(F)F` [Example I-160]: the values for the Ki in experiment [1] and in experiment [2] (setting [3]) were 0.83 nM and 1100 nM, respectively.
For `Cc1ncccc1C(=O)N[C@H]1CC[C@H](CCN2CCc3ccc(OCC(F)F)nc3CC2)CC1` [Example I-091], the Ki was 0.28 nM in experiment [1] and 940 nM in experiment [2] (setting [3]).
On the same counts, the results for `CC(Oc1ccc2c(n1)CCN(CC[C@H]1CC[C@H](NC(=O)c3cccc4nn(C)cc34)CC1)CC2)C(F)F` (single isomer, unassigned) [Example I-124] are 0.072 nM and 180 nM.
On the same counts, the results for `Cc1nc(CC(=O)N[C@H]2CC[C@](F)(CCN3CCc4ccc(O[C@H](C)C(F)(F)F)nc4CC3)CC2)nn1C` [Example I-180] are 0.85 nM and 850 nM.
For `O=C(N[C@H]1CC[C@H](CCN2CCc3nc(OCC(F)F)sc3CC2)CC1)c1cccnc1C(F)F` [Example I-161] the same measures were 0.32 nM and 940 nM.
For the compound `Cc1c(F)cccc1C(=O)N[C@H]1CC[C@H](CCN2CCc3nc(OCC(C)(F)F)sc3CC2)OC1` [Example I-065], the Ki worked out at 0.26 nM in experiment [1] and 340 nM in experiment [2] (setting [3]).
Take `Cn1c(C(=O)NC23CCC(CCN4CCc5nc(OCC(F)(F)F)sc5CC4)(CC2)CC3)cccc1=O` [II-1]: the Ki came to 0.17 nM in experiment [1] and 830 nM in experiment [2] ([3H]-Methylspiperone 1.2 nM).
For `Cc1ncccc1C(=O)N[C@H]1CC[C@H](CCN2CCc3ccc(CCC(F)(F)F)nc3CC2)CC1` [I′-1] the same measures were 0.43 nM and 920 nM.
For `Cc1ncc(CC(=O)N[C@H]2CC[C@H](CCN3CCc4cc(F)c(OCC(F)F)nc4CC3)CC2)o1` [I′-57] the same measures were 0.52 nM and greater than 2200 nM.
On the same counts, the results for `Cn1cc(CC(=O)N[C@H]2CC[C@H](CCN3CCc4ccc(OCC(F)F)nc4CC3)CC2)c(F)n1` [I′-32] are 0.16 nM and 1200 nM.
On to `Cc1nc(CC(=O)N[C@H]2CC[C@H](CCN3CCc4ccc(O[C@H](C)C(F)(F)F)nc4CC3)CC2)nn1C` [Example I-130], for which the results for the Ki in experiment [1] and in experiment [2] (setting [3]) were 0.49 nM and 1200 nM, respectively.
Regarding `Cn1ncc(CC(=O)N[C@H]2CC[C@H](CCN3CCc4nc(OCC(F)(F)F)sc4CC3)CC2)n1` [I′-36], the results for the Ki in experiment [1] and in experiment [2] ([3H]-Methylspiperone 1.2 nM) were 0.071 nM and 740 nM, respectively.
On the same counts, the results for `Cn1ncc(CC(=O)N[C@H]2CC[C@H](CCN3CCc4nc(OCC(F)F)sc4CC3)CC2)c1F` [I′-28] are 0.21 nM and 1500 nM.
On to `Cc1cnc(OCC(=O)N[C@H]2CC[C@](F)(CCN3CCc4ccc(OCC(F)F)nc4CC3)CC2)cn1` [I′-53], for which the figures for the Ki in experiment [1] and in experiment [2] ([3H]-Methylspiperone 1.2 nM) were 0.32 nM and greater than 2200 nM, respectively.
For `Cc1ncc(/C=C/C(=O)N[C@H]2CC[C@H](CCN3CCc4sc(C5CC(F)(F)C5)nc4C3)CC2)cn1` [I′-45] the same measures were 0.11 nM and 210 nM.
As for `Cc1ncc(CC(=O)N[C@H]2CC[C@H](CCN3CCc4nc(OCC(F)(F)F)sc4CC3)CC2)cn1` [Example I-110], the Ki in experiment [1] turned out to be 0.17 nM; in experiment [2] (setting [3]), 460 nM.
For `Cc1ncc(/C=C/C(=O)N[C@H]2CC[C@H](CCN3CCc4ccc(OCC(F)F)nc4CC3)CC2)cn1` [Example I-098] the same measures were 0.17 nM and 350 nM.
For `COc1cc(CC(=O)N[C@H]2CC[C@H](CCN3CCc4ccc(CCC(F)(F)F)nc4CC3)CC2)on1` [I′-2], the Ki was 0.21 nM in experiment [1] and greater than 2300 nM in experiment [2] ([3H]-Methylspiperone 1.2 nM).
On to `Cc1cc(OCC(=O)N[C@H]2CC[C@H](CCN3CCc4nc(OCC(C)(F)F)sc4CC3)CC2)no1` [Example I-053], for which the Ki came to 0.2 nM in experiment [1] and 630 nM in experiment [2] (setting [3]).
With `Cc1cnc(OCC(=O)N[C@H]2CC[C@H](CCN3CCc4ccc(CCC(F)(F)F)nc4CC3)CC2)cn1` [I′-13], the Ki in experiment [1] was determined as 0.43 nM; in experiment [2] ([3H]-Methylspiperone 1.2 nM) it was 910 nM.
For `Cc1nnc(CC(=O)N[C@H]2CC[C@](F)(CCN3CCc4nc(OCC(F)(F)C(F)F)sc4CC3)CC2)o1` [III-8], the results for the Ki in experiment [1] and in experiment [2] (setting [3]) were 0.16 nM and 480 nM, respectively.
On the same counts, the results for `Cn1cc(OCC(=O)N[C@H]2CC[C@H](CCN3CCc4ccc(OCC(F)F)nc4CC3)CC2)cn1` [Example I-096] are 0.18 nM and 570 nM.
`Cn1cc(CC(=O)N[C@H]2CC[C@](F)(CCN3CCc4nc(OCC(F)F)sc4CC3)CC2)c(F)n1` [I′-31]: the Ki stood at 0.57 nM in experiment [1] and 1300 nM in experiment [2] ([3H]-Methylspiperone 1.2 nM).
For `Cc1ncc(/C=C/C(=O)N[C@H]2CC[C@](F)(CCN3CCc4ccc(OCC(C)(F)F)nc4CC3)CC2)cn1` [I′-47] the same measures were 0.081 nM and 41 nM.
In the case of `Cc1cc(OCC(=O)N[C@H]2CC[C@](F)(CCN3CCc4ccc(OCC(C)(F)F)nc4CC3)CC2)no1` [Example I-079], the Ki is 0.07 nM in experiment [1] and greater than 1800 nM in experiment [2] (setting [3]).
For the compound `Cn1c(C(=O)N[C@H]2CC[C@](F)(CCN3CCc4nc(OCC(F)(F)F)sc4CC3)CC2)cccc1=O` [I′-49], the values for the Ki in experiment [1] and in experiment [2] ([3H]-Methylspiperone 1.2 nM) were 0.59 nM and 290 nM, respectively.
As for `CC(Oc1ccc2c(n1)CCN(CC[C@H]1CC[C@H](NC(=O)c3cccc4nn(C)cc34)CC1)CC2)C(F)F` (single isomer, unassigned) [Example I-123], the values for the Ki in experiment [1] and in experiment [2] (setting [3]) were 0.034 nM and 200 nM, respectively.
For `Cn1cc2ccc(C(=O)N[C@H]3CC[C@H](CCN4CCc5nc(OCC(C)(F)F)sc5CC4)CC3)cc2n1` [Example I-050] the same measures were 0.16 nM and greater than 1800 nM.
With `Cn1ncc(CC(=O)N[C@H]2CC[C@H](CCN3CCc4ccc(OCC(F)F)nc4CC3)CC2)n1` [I′-44], the Ki in experiment [1] is 0.11 nM; in experiment [2] ([3H]-Methylspiperone 1.2 nM), 2000 nM.
For `Cn1cc(CC(=O)N[C@H]2CC[C@](F)(CCN3CCc4nc(OCC(F)(F)F)sc4CC3)CC2)c(F)n1` [I′-25] the same measures were 0.29 nM and 730 nM.
Take `Cc1cc2c(C(=O)N[C@H]3CC[C@](F)(CCN4CCc5nc(OCC(F)F)sc5CC4)CC3)cccn2n1` [Example I-058]: the Ki in experiment [1] is 0.47 nM; in experiment [2] (setting [3]), greater than 1700 nM.
For `Cc1cnc(OCC(=O)N[C@H]2CC[C@](F)(CCN3CCc4nc(OCCC(F)(F)F)sc4CC3)CC2)cn1` [Example I-118] the same measures were 0.74 nM and greater than 2200 nM.
Turning to `Cc1ncc(CC(=O)N[C@H]2CC[C@H](CCN3CCc4nc(OCC(C)(F)F)sc4CC3)CC2)cn1` [I′-55], the Ki in experiment [1] worked out at 0.16 nM; in experiment [2] ([3H]-Methylspiperone 1.2 nM), 950 nM.
For the compound `Cc1nnc(CC(=O)N[C@H]2CC[C@H](CCN3CCc4nc(O[C@@H](C)C(F)(F)F)sc4CC3)CC2)o1` [III-4], the Ki in experiment [1] amounted to 0.16 nM; in experiment [2] (setting [3]) it was 780 nM.
On the same counts, the results for `CC(F)(F)COc1nc2c(s1)CCN(CC[C@H]1CC[C@H](NC(=O)c3cnn4ccccc34)CC1)CC2` [Example I-051] are 0.43 nM and 1100 nM.
`Cc1nc(CC(=O)N[C@H]2CC[C@H](CCN3CCc4ccc(CCC(F)(F)F)nc4CC3)CC2)nn1C` [I′-14]: the figures for the Ki in experiment [1] and in experiment [2] ([3H]-Methylspiperone 1.2 nM) were 0.21 nM and greater than 2300 nM, respectively.
In the case of `Cn1c(C(=O)N[C@H]2CC[C@H](CCN3CCc4nc(OCC(F)(F)F)sc4CC3)CC2)ccc(F)c1=O` [Example I-122], the figures for the Ki in experiment [1] and in experiment [2] (setting [3]) were 0.24 nM and 360 nM, respectively.
As to `Cn1cc(OCC(=O)N[C@H]2CC[C@H](CCN3CCc4ccc(CCC(F)(F)F)nc4CC3)CC2)cn1` [I′-6], the Ki in experiment [1] came to 0.33 nM.
